Experimental data from BindingDB's records for doi:10.1016/s0960-894x(00)00163-3 (Glaxosmithkline, 2000).
pKi: −log10 of the molar value.

Target: T1, Dimer of Gag-Pol polyprotein [501-599,Q508K,L534I,L564I,C568A,C596A] (Human immunodeficiency virus 1, UniProt P03367, C568A/C596A/L534I/L564I/Q508K)
T1 construct: 501-599
Experiment: Protease Inhibition Assay
Conditions: pH 6.4; 25 °C
Description: The Ki values were determined using fluorogenic substrate, 2-(aminobenzoyl)-Thr-Ile-Nle-Phe(p-NO2)-Gln-ArgNH2. A standard curve relating changes in fluorescent intensity to changes in concentration of product was used to convert fluorescent changes into molar velocities. The amount of cleavage was determined by HPLC.

O=C(N[C@H]1c2ccccc2C[C@H]1O)[C@H](Cc1ccccc1)C[C@H](O)CN1C(=O)[C@H](Cc2ccccc2)C[C@@H]1Cc1ccccc1 [(2R,4S)-2-benzyl-5-[(3R,5R)-3,5-dibenzyl-2-oxopyrrolidin-1-yl]-4-hydroxy-N-[(1S,2R)-2-hydroxy-2,3-dihydro-1H-inden-1-yl]pentanamide]
pKi: < 9.30
